From patent US4559402A, “Pyrazolopyridines and tetrahydro pyrazolopyridines” (Kyorin Seiyaki Kabushiki Kaisha, priority 1983, dated 1985)
Like-named read-outs stand apart in the source and are kept apart here.

Experiments:
[1] = test system: Rabbit platelet aggregation induced by arachidonic acid; assay: Effects on rabbit platelet aggregation in vitro (PRP), arachidonic acid-induced; format: cell-based; settings: Oryctolagus cuniculus, 0.05 h, arachidonic acid 10^-4 M, 3 min. preincubation, read-out: IC100 (concentration which gave maximum (100%) inhibition against platelet aggregation)
Protocol: (§1) The antiaggregant activity in vitro of the present compounds was studied in platelet rich plasma from rabbit and man.
(§2) Blood was taken from the femoral artery of rabbit with a syringe containing sodium citrate (3.8%, 1 vol. in 9 vol. of blood). The citrated blood was centrifuged at 800 rpm. The supernatants were stored at 10° C. until use as platelet rich plasma (PRP) in the subsequent experiment. Platelet aggregation was determined with aggregometer (D-P 247 E, SIENCO Ltd.). Stock solution of test compounds was made by suspending at a concentration of 10 mg/ml in 1% gum arabic solution. Further, dilution was made with 0.9% saline. PRP was preincubated for 3 min. with the test compounds, and then arachidonic acid as aggregant was added at final concentration of 10^-4 M.
(§3) IC100 -values are the concentrations which gave maximum (100%) inhibition against platelet aggregation caused by arachidonic acid.

[2] = Acute Toxicity (LD50), mice; settings: mouse, in vivo
[3] = test system: arachidonic acid-induced aggregation of platelets from rabbit; assay: Ex vivo studies on platelet aggregation (PRP from rabbit administered orally), arachidonic acid-induced; format: in vivo; settings: oral, blood taken one hour after administration, FIG. 1
Protocol: To know the absorbability and potency of the compound of this invention, another platelet aggregation tests were done using the PRP from rabbit which had been administered orally with the drugs.
Rabbits were administered orally with the compound of Example 2 or aspirin. One hour after the drug administration, blood was taken from the femoral artery. The methods for preparing PRP and determining platelet aggregation were the same as Experiment 1.

[4] = test system: human platelet aggregation, arachidonic acid-induced; assay: Effects on human platelet aggregation in vitro (PRP), arachidonic acid-induced; format: cell-based
Protocol: as §1, §2, §3
(§4) Blood samples were taken from median cubital vein of 5 healthy volunteers (male, 30 to 42 age) with plastic syringe. The citrated blood (sodium citrate 1 vol. in 9 vol. of blood) was centrifuged at 1000 rpm. The supernatant (PRP) was stored at 10° C. and used within 5 hours. Arachidonic acid (4-8×10^-4 M) and collagen (6-8 μg/ml, SIGMA, Type III) were used as aggregants. Other procedures were the same as in Experiment 1.

[5] = Effect on blood viscosity (whole blood and plasma viscosities, hematocrit); format: in vivo, Male Wistar rats; settings: rat, 10 mg/kg p.o. twice a day for 2 days
Protocol: Male Wistar rats weighing 300-380 g were used in this experiment. Rats were administered orally 10 mg/kg twice a day of the compound of Example 2 for 2 days. One hour after the last treatment, rats were anaesthetized with pentobarbital 35 mg/kg ip, and then blood was taken from vena cava caudalis. EDTA was added at a final concentration of 2 mM.
Whole blood and plasma viscosities were measured with rotational viscometer (Contraves LS-30, shear rate 0-128.5 sec.^-1, 37° C.) and hematocrit was determined by microhematocrit centrifugation (13,000 g for 5 min.).

[6] = Gastro-intestinal lesions in rats (ulcerogenic activity); design: species or system Male Wistar rats; settings: rat, in vivo, po
Protocol: Male Wistar rats weighing 250 to 300 g were used in this experiment. Ulcer formation under the satiety condition was studied as follows: Rats not fasted prior to experiment were administered orally with test compounds. The animals were allowed free access to diet and water for 24 hours after the drug administration until sacrificed by exsanguination. The stomach and the intestine were removed and examined for lesions.
In the other study, rats had been deprived of food and water for 24 hours before drug administration. The animals were administered orally with the compound of Example 2 and aspirin and then they had free access to water but not to diet. Twenty-four hours later, the animals were killed by the exsanguination. The stomach and the intestine were removed and observed carefully to know whether or not lesions were present.
Units for the UD50values: mg/kg, p.o. UD50 means the dose that
cause the lesions in 50% of animals.

[7] = Acute Toxicity (LD50), rats; settings: rat, in vivo
[8] = test system: human platelet aggregation, collagen-induced; assay: Effects on human platelet aggregation in vitro (PRP), collagen-induced; format: cell-based; settings: 0.05 h, collagen 6-8 μg/ml, read-out: concentration that completely inhibited platelet aggregation
Protocol: as §1, §2, §3, §4

[9] = iv, read-out: Acute Toxicity LD50, I.V.
[10] = po, read-out: Acute Toxicity LD50, P.O.

SMILES: CCOC(=O)C(C)N1C=C(C(=O)c2c(C)nn3ccccc23)CCC1 (centres unmarked) [Example 10, 3-[1-(1-ethoxycarbonylethyl)-1,4,5,6-tetrahydronicotinoyl]-2-methylpyrazolo-[1,5-a]pyridine]
- IC100 [1]: 0.3 µg/mL

SMILES: Cc1nn2ccccc2c1C(=O)c1cccnc1 [Example 1, 2-methyl-3-nicotinoylpyrazolo[1,5-a]pyridine]
- IC100 [1]: 6 µg/mL

SMILES: Cc1nn2ccccc2c1C(=O)C1=CNCCC1 [Example 2, 2-methyl-3-(1,4,5,6-tetrahydronicotinoyl)pyrazolo[1,5-a]pyridine]
- LD50 [2, 9]: 125 to 150 mg/kg
- LD50 [2, 10]: > 1000 mg/kg
- inhibitory activity on arachidonic acid-induced platelet aggregation relative to aspirin [3]: several times as high as aspirin
- difference in the IC100-values between individuals ([4]; arachidonic acid and collagen, considered to be due to individual difference): About 300 folds
- inhibitory activity against both arachidonic acid- and collagen-induced platelet aggregation ([4]; comparison of the two aggregants): almost the same inhibitory activity
- effect on hematocrit [5]: no effects
- effect on plasma viscosity [5]: no effects
- reduction of whole blood viscosity, shear rate 0.1285 sec.^-1 [5]: 50.1%
- reduction of whole blood viscosity, shear rate 0.514 sec.^-1 [5]: 36.1%
- reduction of whole blood viscosity, shear rate 6.425 sec.^-1 [5]: 23.5%
- reduction of whole blood viscosity, shear rate 25.7 sec.^-1 [5]: 19.2%
- reduction of whole blood viscosity, shear rate 128.5 sec.^-1 [5]: 12.0%
- Plasma Viscosity ([5]; 37° C.): 1.14 ± 0.01 mPS
- Whole Blood Viscosity, shear rate 0.1285 sec.^-1 ([5]; 37° C., * p < 0.05 vs vehicle): 24.8 ± 2.71 mPS
- Whole Blood Viscosity, shear rate 0.514 sec.^-1 ([5]; 37° C., * p < 0.05 vs vehicle): 17.2 ± 1.31 mPS
- Whole Blood Viscosity, shear rate 6.425 sec.^-1 ([5]; 37° C., * p < 0.05 vs vehicle): 7.31 ± 0.36 mPS
- Whole Blood Viscosity, shear rate 25.7 sec.^-1 ([5]; 37° C., * p < 0.05 vs vehicle): 5.18 ± 0.12 mPS
- Whole Blood Viscosity, shear rate 128.5 sec.^-1 ([5]; 37° C., * p < 0.05 vs vehicle): 3.68 ± 0.08 mPS
- Hematocrit ([5]; microhematocrit centrifugation): 46.0 ± 0.71%
- TD50 at 24 h ([6]; UD50 (dose that cause the lesions in 50% of animals), Fasting): 300 to 500 mg/kg
- TD50 at 24 h ([6]; UD50 (dose that cause the lesions in 50% of animals), Satiety): > 1000 mg/kg
- LD50 [7, 9]: > 100 mg/kg
- LD50 [7, 10]: > 1000 mg/kg
- IC100 [1]: 0.03 µg/mL

SMILES: Cc1nn2ccccc2c1C(=O)C1=CN(C(=O)Nc2ccc(Cl)cc2)CCC1 [Example 4, 2-methyl-3-[1-(p-chlorophenylcarbamoyl)-1,4,5,6-tetrahydronicotinoyl]-pyrazolo[1,5-a]pyridine]
- IC100 [1]: 1 µg/mL

SMILES: CC(=O)Oc1ccccc1C(=O)O [Aspirin, reference compound]
- IC100 [8]: 100 µg/mL
- TD50 at 24 h ([6]; deprived of food and water for 24 hours before, examined 24 hours after, read-out: UD50 (dose that cause the lesions in 50% of animals), Fasting): 25 to 50 mg/kg
- TD50 at 24 h ([6]; not fasted, 24 hours, read-out: UD50 (dose that cause the lesions in 50% of animals), Satiety): 230 mg/kg
- IC100 [1]: 4 µg/mL

SMILES: Cc1nn2c(c1C(=O)C1=CNCCC1)CCCC2 [Example 3, 2-methyl-3-(1,4,5,6-tetrahydronicotinoyl)-4,5,6,7-tetrahydropyrazole[1,5-a]pyridine]
- IC100 [1]: 0.2 µg/mL
